Test results taken from ChEMBL document CHEMBL4004802, “α-Glucosidase Inhibitors from Malbranchea flavorosea” (J Nat Prod, 2017).
Calls of active or inactive are those of the source. The rule behind the calls is not given here.

Legend:
[1] = Inhibition of Saccharomyces cerevisiae alpha-glucosidase using p-nitrophenyl-alpha-D-glucopyranoside as substrate after 30 mins
Mus musculus [2] = assay: Antihyperglycemic activity in ICR mouse assessed as decrease in postprandial blood glucose levels at 5 mg/kg administered 30 mins followed by oral sucrose challenge measured after 30 to 120 mins by OSTT; type: functional, organism-based
Mus musculus [3] = assay: Antihyperglycemic activity in nicotinamide/streptozotocin-induced ICR mouse hyperglycemic model assessed as decrease in postprandial blood glucose levels at 5 mg/kg administered 30 mins followed by oral sucrose challenge measured after 30 to 120 mins by OSTT; type: functional, organism-based
Mus musculus [4] = assay: Antihyperglycemic activity in ICR mouse assessed as decrease in postprandial blood glucose levels at 3.2 to 31.6 mg/kg, po administered 30 mins followed by oral sucrose challenge measured after 30 to 120 mins by OSTT; type: functional, organism-based
Mus musculus [5] = assay: Antihyperglycemic activity in nicotinamide/streptozotocin-induced ICR mouse hyperglycemic model assessed as decrease in postprandial blood glucose levels at 3.2 to 31.6 mg/kg, po administered 30 mins followed by oral sucrose challenge measured after 30 to 120 mins by OSTT; type: functional, organism-based

Compound | IC50 [1] [µM] | Activity (Mus musculus [2]) | Activity (Mus musculus [3]) | Activity (Mus musculus [4]) | Activity (Mus musculus [5])
C[C@H](O)[C@H](O)C[C@H]1OCc2c(O)cccc21 | 2250 | – | – | – | –
O=C1C=Cc2cccc(O)c2CO1 | 1070 | – | – | – | –
C[C@H]1O[C@H](O[C@H]2[C@H](O)[C@@H](O)[C@@H](O[C@H]3[C@H](O)[C@@H](O)C(O)O[C@@H]3CO)O[C@@H]2CO)[C@H](O)[C@@H](O)[C@@H]1N[C@H]1C=C(CO)[C@@H](O)[C@H](O)[C@H]1O (stereo partly drawn) [ACARBOSE] | 500 | Active | Active | – | –
C=C1OC(=O)[C@]2([C@H](C)C=CC(=O)[C@@H]2O)[C@H]1O [MASSARIGENIN C] | 1250 | – | – | Active | Active
